Earlier results on one compound are cited in patent publication US20220288059A1, “NANOENCAPSULATED CANNABIDIOL” (Aphios Corporation, priority 2020, published 2022).

Structures are written as SMILES.

One data set concerns rats. Particulars: i.v.
A further data set concerns dogs. Particulars: intravenously.
In another data set the test system is rhesus monkeys. Particulars: intravenously.
Data set [1] concerns mice.
Data set [2] has as its system mice. Particulars: intravenously.

As to `C=C(C)[C@@H]1CCC(C)=C[C@H]1c1c(O)cc(CCCCC)cc1O` [CBD, cannabidiol], the “toxicity relative to Δ9-THC by LD50” value in the data set on rats is “less toxic than Δ9-THC”. Also, in the data set on dogs, the LD50 in dogs is reported as 254 mg/kg. The “LD50 in rhesus monkeys” value with rhesus monkeys is reported as 212 mg/kg. Also, in the data set on mice [1], the “inhibition of cue-induced heroin-seeking behaviors” value is “effectively inhibit cue-induced heroin-seeking behaviors”. Further, the LD50 in mice in the data set with mice [2] is recorded as 50 mg/kg. Further, in the data set with Wistar rats, the “anti-nociceptive effect, tail-flick test” value is “dose-dependent anti-nociceptive effects”.
